Patent publication US6914045B2, “Glycopeptide antibiotics” (Wyeth Holdings Corporation, priority 2001, dated 2005)
≈ marks a conversion by molar mass, not a printed value.

Columns and labels:
Experiment in all cases: in vitro antibacterial evaluation, MIC by broth dilution
Type in all cases: cell-based
Streptococcus sp. = conditions: broth dilution, 18 hours at 35° C.
Procedure, shortened: (§1)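 Read-out: the lowest concentration at which the test strain fails to grow. Serial dilutions (64-0.06 μg/mL) in Muller-Hinton II […], 5×10^5 CFU/mL inoculum, NCCLS M7-A2 procedure.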

Escherichia coli = conditions: 18 hours at 35° C.
Procedure, shortened: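 MIC = lowest antibiotic concentration preventing visible growth; inoculum 5×10^5 CFU/mL; drug range 64-0.06 μg/mL; Muller-Hinton II […]; NCCLS M7-A2 guidance.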

Staphylococcus sp. = conditions: broth dilution, 18 hours at 35° C.
Procedure, shortened: as §1

Enterococcus sp. = conditions: broth dilution, 18 hours at 35° C.
Procedure, shortened: as §1

Compound: CC(=O)OCC1OC(OC2C(CO)OC(Oc3ccc(CC4NC(=O)C(C(C)c5ccccc5)NC(=O)CNC(=O)C(CO)NC(=O)C(C(O)C5CNC(=N)N5C5OC(CO)C(O)C(O)C5O)NC(=O)C(C(O)C5CNC(=N)N5)NC4=O)cc3)C(O)C2O)C(O)C(OC(=O)CCC(C)C)C1O (stereo not drawn) [Example 270b, Cyclo[glycyl-β-methylphenylalanyl-O-[4-O-[6-O-acetyl-3-O-(4-methylpentanoyl)hexopyranosyl]hexopyranosyl]tyrosyl-3-(2-iminoimidazolidin-4-yl)seryl-3-(3-hexopyranosyl-2-iminoimidazolidin-4-yl)serylseryl]]
- MIC Streptococcus agalactiae (GC 4564) (Streptococcus sp.; strain GC 4564): 2 µg/mL (≈ 1.39 µM)
- MIC Streptococcus pyogenes (ID-3187) (Streptococcus sp.; strain ID-3187): 2 µg/mL (≈ 1.39 µM)
- MIC Escherichia coli (ATCC 25922) (Escherichia coli; Escherichia coli (ATCC 25922)): >64 µg/mL
- MIC Escherichia coli (GC 4559) (Escherichia coli; Escherichia coli (GC 4559)): >64 µg/mL
- MIC Escherichia coli (GC 4560) (Escherichia coli; Escherichia coli (GC 4560)): 4 µg/mL (≈ 2.79 µM)
- MIC Coagulase Negative Staphylococcus (GC 4547) (Staphylococcus sp.): 4 µg/mL (≈ 2.79 µM)
- MIC Coagulase Negative Staphylococcus (GC 4548) (Staphylococcus sp.): 4 µg/mL (≈ 2.79 µM)
- MIC Coagulase Negative Staphylococcus (GC 4549) (Staphylococcus sp.): 4 µg/mL (≈ 2.79 µM)
- MIC Coagulase Negative Staphylococcus (GC 4551) (Staphylococcus sp.): 4 µg/mL (≈ 2.79 µM)
- MIC Staphylococcus aureus (ATCC 29213) (Staphylococcus sp.): 8 µg/mL (≈ 5.57 µM)
- MIC Staphylococcus aureus (GC 1131) (Staphylococcus sp.): 8 µg/mL (≈ 5.57 µM)
- MIC Staphylococcus aureus (GC 4541) (Staphylococcus sp.): 8 µg/mL (≈ 5.57 µM)
- MIC Staphylococcus aureus (GC 4542) (Staphylococcus sp.): 8 µg/mL (≈ 5.57 µM)
- MIC Staphylococcus aureus (GC 4544) (Staphylococcus sp.): 8 µg/mL (≈ 5.57 µM)
- MIC Staphylococcus aureus (GC 4545) (Staphylococcus sp.): 4 µg/mL (≈ 2.79 µM)
- MIC Staphylococcus aureus-SMITH (GC 4543) (Staphylococcus sp.): 4 µg/mL (≈ 2.79 µM)
- MIC Staphylococcus haemolyticus (GC 4546) (Staphylococcus sp.): 4 µg/mL (≈ 2.79 µM)
- MIC Staphylococcus aureus (ATCC 29213) (Staphylococcus sp.; strain ATCC 29213): 8 µg/mL (≈ 5.57 µM)
- MIC Staphylococcus aureus (GC 1131) (Staphylococcus sp.; strain GC 1131): 8 µg/mL (≈ 5.57 µM)
- MIC Staphylococcus aureus (GC 4541) (Staphylococcus sp.; strain GC 4541): 8 µg/mL (≈ 5.57 µM)
- MIC Staphylococcus aureus (GC 4542) (Staphylococcus sp.; strain GC 4542): 8 µg/mL (≈ 5.57 µM)
- MIC Staphylococcus aureus (GC 4544) (Staphylococcus sp.; strain GC 4544): 8 µg/mL (≈ 5.57 µM)
- MIC Staphylococcus aureus (GC 4545) (Staphylococcus sp.; strain GC 4545): 4 µg/mL (≈ 2.79 µM)
- MIC Staphylococcus haemolyticus (GC 4546) (Staphylococcus sp.; strain GC 4546): 4 µg/mL (≈ 2.79 µM)
- MIC Coagulase Negative Staphylococcus (GC 4547) (Staphylococcus sp.; strain GC 4547): 4 µg/mL (≈ 2.79 µM)
- MIC Coagulase Negative Staphylococcus (GC 4548) (Staphylococcus sp.; strain GC 4548): 4 µg/mL (≈ 2.79 µM)
- MIC Coagulase Negative Staphylococcus (GC 4549) (Staphylococcus sp.; strain GC 4549): 4 µg/mL (≈ 2.79 µM)
- MIC Coagulase Negative Staphylococcus (GC 4551) (Staphylococcus sp.; strain GC 4551): 4 µg/mL (≈ 2.79 µM)
- MIC Staphylococcus aureus-SMITH (GC 4543) (Staphylococcus sp.; strain SMITH GC 4543): 4 µg/mL (≈ 2.79 µM)
- MIC Enterococcus avium (GC 4558) (Enterococcus sp.; Enterococcus avium (GC 4558)): 32 µg/mL (≈ 22.3 µM)
- MIC Enterococcus faecalis (ATCC 29212) (Enterococcus sp.; Enterococcus faecalis (ATCC 29212)): 32 µg/mL (≈ 22.3 µM)
- MIC Enterococcus faecalis (GC 4553) (Enterococcus sp.; Enterococcus faecalis (GC 4553)): 32 µg/mL (≈ 22.3 µM)
- MIC Enterococcus faecalis (GC 4554) (Enterococcus sp.; Enterococcus faecalis (GC 4554)): 32 µg/mL (≈ 22.3 µM)
- MIC Enterococcus faecium (GC 2243) (Enterococcus sp.; Enterococcus faecium (GC 2243)): 32 µg/mL (≈ 22.3 µM)
- MIC Enterococcus faecium (GC 4556) (Enterococcus sp.; Enterococcus faecium (GC 4556)): 32 µg/mL (≈ 22.3 µM)
- MIC Enterococcus faecium (GC 4557) (Enterococcus sp.; Enterococcus faecium (GC 4557)): 8 µg/mL (≈ 5.57 µM)
- MIC Enterococcus faecalis (ATCC 29212) (Enterococcus sp.; strain ATCC 29212): 32 µg/mL (≈ 22.3 µM)
- MIC Enterococcus faecalis (GC 2242) (Enterococcus sp.; strain GC 2242): 16 µg/mL (≈ 11.1 µM)
- MIC Enterococcus faecium (GC 2243) (Enterococcus sp.; strain GC 2243): 32 µg/mL (≈ 22.3 µM)
- MIC Enterococcus faecalis (GC 4552) (Enterococcus sp.; strain GC 4552): 32 µg/mL (≈ 22.3 µM)
- MIC Enterococcus faecalis (GC 4553) (Enterococcus sp.; strain GC 4553): 32 µg/mL (≈ 22.3 µM)
- MIC Enterococcus faecalis (GC 4554) (Enterococcus sp.; strain GC 4554): 32 µg/mL (≈ 22.3 µM)
- MIC Enterococcus faecium (GC 4556) (Enterococcus sp.; strain GC 4556): 32 µg/mL (≈ 22.3 µM)
- MIC Enterococcus faecium (GC 4557) (Enterococcus sp.; strain GC 4557): 8 µg/mL (≈ 5.57 µM)
- MIC Enterococcus avium (GC 4558) (Enterococcus sp.; strain GC 4558): 32 µg/mL (≈ 22.3 µM)
